Source: patent publication US8138173B2, “Pyrazolo[3,4-C]quinolines, pyrazolo[3,4-C]naphthyridines, analogs thereof, and methods” (3M Innovative Properties Company, priority 2005, dated 2012)
Counter-ions that a name gives are not always drawn.

| Structure (SMILES) | melting point [°C] |
| --- | --- |
| CC(C)(C)OC(=O)N1CCC(CC(O)c2c3c(nn2-c2ccccc2)c(=O)[nH]c2ccccc23)CC1 (stereo not shown) [Example 8, tert-Butyl 4-[2-hydroxy-2-(4-oxo-2-phenyl-4,5-dihydro-2H-pyrazolo[3,4-c]quinolin-1-yl)ethyl]piperidine-1-carboxylate] | 253 to 254 |
| Cc1c2c(nn1-c1ccccc1)c(Cl)nc1ccccc12 [Example 12, 4-Chloro-1-methyl-2-phenyl-2H-pyrazolo[3,4-c]quinoline] | 208 to 209 |
| CCCn1nc2c(Cl)nc3ccccc3c2c1C [Example 1, 4-Chloro-1-methyl-2-propyl-2H-pyrazolo[3,4-c]quinoline] | 145 to 147 |
| O=c1[nH]c2ccccc2c2c(C(O)CC3CCCCC3)n(-c3ccccc3)nc12 (stereo not shown) [Example 10, 1-(2-Cyclohexyl-1-hydroxyethyl)-2-phenyl-2,5-dihydro-4H-pyrazolo[3,4-c]quinolin-4-one] | 254 to 259 |
| O=c1[nH]c2ccccc2c2c(C(O)CC3CCNCC3)n(-c3ccccc3)nc12 (stereo not shown) [Example 9, 1-(1-Hydroxy-2-piperidin-4-ylethyl)-2-phenyl-2,5-dihydro-4H-pyrazolo[3,4-c]quinolin-4-one] | 258 to 261 |
| Clc1nc2ccccc2c2c(CCC3CCNCC3)n(-c3ccccc3)nc12 (as salt: HCl) [Example 7, 4-Chloro-2-phenyl-1-(2-piperidin-4-ylethyl)-2H-pyrazolo[3,4-c]quinoline] | 194 |
| Cc1c2c(cnc3ccccc32)nn1-c1ccccc1 [Example 13, 1-Methyl-2-phenyl-2H-pyrazolo[3,4-c]quinoline] | 128 to 130 |
| O=c1[nH]c2ccccc2c2c(CCC3CCNCC3)n(-c3ccccc3)nc12 [Example 6, 2-Phenyl-1-(2-piperidin-4-ylethyl)-2,5-dihydro-4H-pyrazolo[3,4-c]quinolin-4-one] | 250 to 252 |
| O=C(Cc1c2c(nn1-c1ccccc1)c(=O)[nH]c1ccccc12)N1CCN(Cc2ccccc2)CC1 | 283 to 285 |
| CCn1nc2c(OC)nc3ccccc3c2c1CO [Example 5, (2-Ethyl-4-methoxy-2H-pyrazolo[3,4-c]quinolin-1-yl)methanol] | 219 to 220 |
| Cc1c2c(nn1-c1ccccc1)c(=O)[nH]c1ccccc12 [Example 11, 1-Methyl-2-phenyl-2,5-dihydro-4H-pyrazolo[3,4-c]quinolin-4-one] | > 250 |
| O=C(Cc1c2c(nn1-c1ccccc1)c(Cl)nc1ccccc12)N1CCN(Cc2ccccc2)CC1 | 210.5 to 211.5 |

Second part, the compound after the results:

| melting point [°C] | Structure (SMILES) |
| --- | --- |
| 301 to 303 | CCOC(=O)Cc1c2c(nn1-c1ccccc1)c(=O)[nH]c1ccccc12 [Example 18, Ethyl (4-oxo-2-phenyl-4,5-dihydro-2H-pyrazolo[3,4-c]quinolin-1-yl)acetate] |
| 331 to 334 | CCc1c2c(nn1-c1ccccc1)c(=O)[nH]c1ccccc12 [Example 14, 1-Ethyl-2-phenyl-2,5-dihydro-4H-pyrazolo[3,4-c]quinolin-4-one] |
| 207 to 209 | CCc1c2c(nn1-c1ccccc1)c(Cl)nc1ccccc12 [Example 15, 4-Chloro-1-ethyl-2-phenyl-2H-pyrazolo[3,4-c]quinoline] |
| 295 to 297 | CC(C)(C)n1nc2c(=O)[nH]c3ccccc3c2c1CO [Example 26, 2-tert-Butyl-1-(hydroxymethyl)-2,5-dihydro-4H-pyrazolo[3,4-c]quinolin-4-one] |
| 75 to 77 | Clc1nc2ccccc2c2c(CCN3CCN(Cc4ccccc4)CC3)n(-c3ccccc3)nc12 [Example 23, 1-[2-(4-Benzylpiperazin-1-yl)ethyl]-4-chloro-2-phenyl-2H-pyrazolo[3,4-c]quinoline] |
| 223 to 225 | CC(C)(C)OC(=O)N1CCC(CCc2c3c(nn2C(C)(C)C)c(=O)[nH]c2ccccc23)CC1 [Example 25, tert-Butyl 4-[2-(2-tert-butyl-4-oxo-4,5-dihydro-2H-pyrazolo[3,4-c]quinolin-1-yl)ethyl]piperidine-1-carboxylate] |
| 294 to 296 | CCCn1nc2c(O)nc3ccccc3c2c1CC(C)(C)O [Example 29, 1-(2-Hydroxy-2-methylpropyl)-2-propyl-2H-pyrazolo[3,4-c]quinolin-4-ol] |
| 233 to 235 | CCOC(=O)Cc1c2c(nn1CC)c(=O)[nH]c1ccccc12 [Example 17, Ethyl (2-ethyl-4-oxo-4,5-dihydro-2H-pyrazolo[3,4-c]quinolin-1-yl)acetate] |
| 211 to 212.5 | O=c1[nH]c2ccccc2c2c(CCN3CCN(Cc4ccccc4)CC3)n(-c3ccccc3)nc12 [Example 24, 1-[2-(4-Benzylpiperazin-1-yl)ethyl]-2-phenyl-2,5-dihydro-4H-pyrazolo[3,4-c]quinolin-4-one] |
| 310 to 312 | O=c1[nH]c2ccccc2c2c(CCO)n(-c3ccccc3)nc12 [Example 20, 1-(2-Hydroxyethyl)-2-phenyl-2,5-dihydro-4H-pyrazolo[3,4-c]quinolin-4-one] |
| > 300 | CCCc1c2c(nn1-c1ccccc1)c(=O)[nH]c1ccccc12 [Example 28, 2-Phenyl-1-propyl-2,5-dihydro-4H-pyrazolo[3,4-c]quinolin-4-one] |
| > 280 | CC(C)Cc1c2c(nn1C)c(O)nc1ccccc12 [Example 27, 1-Isobutyl-2-methyl-2H-pyrazolo[3,4-c]quinolin-4-ol] |
| 239 to 243 | CCCCc1c2c(nn1-c1ccccc1)c(Cl)nc1ccccc12 [Example 16, 1-Butyl-4-chloro-2-phenyl-2H-pyrazolo[3,4-c]quinoline] |
